Assay results from patent US20220339144A1, “PYRIDINYL INDOLE COMPOUNDS AND METHODS OF USE THEREOF” (Chinook Therapeutics Canada, Inc., priority 2021, published 2022).
pEC50: −log10 of the molar value.

Molecular target: T1, AMPKα1β1γ1 (Homo sapiens, UniProt Q13131+Q9Y478)
T1 construct: purchased Carna Biosciences 02-113
Test: AMPKα1β1γ1 biochemical assay (LabChip EZ Reader mobility shift)
Details: EC50 of Table 1; activation, normalized to DMSO vehicle control; read-out: Human AMPK AMPKα1β1γ1 EC50
Protocol: Compounds disclosed herein were evaluated for their ability to activate AMPKα1β1γ1 by measuring phosphorylation of a commercially available fluorescent AMPK substrate using the LabChip® EZ Reader microfluidic system that is based on a mobility shift principle in which unphosphorylated fluorescent substrates may be separated and distinguished from phosphorylated fluorescent substrates due to the difference in negative charge. Briefly, compounds were serial diluted 3-fold in 100% DMSO for an 11-point dose-response curve. A 20 nL aliquot of diluted compound was transferred into a 384-well plate using a liquid handler (Labcyte Inc., Echo 550). A pre-prepared solution (10 mM MgCl2, 0.01% Brij-35, 2 mM DTT, 0.05% BSA, 1 mM EGTA, and 50 mM HEPES pH 7.5) was combined with 0.83 nM AMPKα1β1γ1 (Carna Biosciences, 02-113). The enzyme solution (15 μL) was aliquoted into each well and the plate was incubated at 24° C. for 30 min. A second stock solution (10 mM MgCl2, 0.01% Brij-35, 2 mM DTT, 0.05% BSA, 1 mM EGTA, 800 μM ATP, and 50 mM HEPES pH 7.5) was combined with 6 μM fluorescent peptide substrate for AMPKal (Perkin Elmer, 760351). The kinase reaction was initiated by adding 5 μL of the second solution containing substrate and ATP to each well. The plate was incubated at 24° C. for 90 minutes and 75 μL of 0.5 M EDTA was added to terminate the reaction. The plates were analyzed using a LabChip® EZ Reader (Perkin Elmer, 122919) and the effective concentration to achieve 50% of the maximal activity (EC50) was calculated after normalizing to the DMSO vehicle control.

T1 sequence (Q13131 whole entry): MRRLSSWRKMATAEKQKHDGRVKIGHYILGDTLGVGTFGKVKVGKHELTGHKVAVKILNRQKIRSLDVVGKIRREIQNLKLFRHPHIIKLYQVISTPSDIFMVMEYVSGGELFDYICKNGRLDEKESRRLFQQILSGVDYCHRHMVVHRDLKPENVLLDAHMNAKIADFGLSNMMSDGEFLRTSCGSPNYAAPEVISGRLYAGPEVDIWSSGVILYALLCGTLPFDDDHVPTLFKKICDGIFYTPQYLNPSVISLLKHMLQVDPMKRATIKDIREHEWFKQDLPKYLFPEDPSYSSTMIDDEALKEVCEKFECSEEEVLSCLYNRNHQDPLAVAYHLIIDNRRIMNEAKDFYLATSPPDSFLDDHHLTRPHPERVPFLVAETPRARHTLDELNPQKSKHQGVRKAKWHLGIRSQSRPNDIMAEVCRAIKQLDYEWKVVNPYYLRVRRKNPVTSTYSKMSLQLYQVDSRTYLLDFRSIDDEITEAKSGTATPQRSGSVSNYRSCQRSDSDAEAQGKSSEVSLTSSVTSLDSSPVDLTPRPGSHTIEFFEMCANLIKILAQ
T1 sequence (Q9Y478 whole entry): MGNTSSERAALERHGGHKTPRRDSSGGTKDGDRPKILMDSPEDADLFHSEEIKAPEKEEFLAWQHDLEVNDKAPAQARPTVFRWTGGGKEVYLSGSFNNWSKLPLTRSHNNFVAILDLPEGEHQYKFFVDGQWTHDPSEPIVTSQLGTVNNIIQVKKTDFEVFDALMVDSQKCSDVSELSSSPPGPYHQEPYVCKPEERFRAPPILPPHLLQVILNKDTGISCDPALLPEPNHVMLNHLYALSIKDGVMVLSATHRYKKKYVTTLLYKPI
T1 sequence (P54619 whole entry partner): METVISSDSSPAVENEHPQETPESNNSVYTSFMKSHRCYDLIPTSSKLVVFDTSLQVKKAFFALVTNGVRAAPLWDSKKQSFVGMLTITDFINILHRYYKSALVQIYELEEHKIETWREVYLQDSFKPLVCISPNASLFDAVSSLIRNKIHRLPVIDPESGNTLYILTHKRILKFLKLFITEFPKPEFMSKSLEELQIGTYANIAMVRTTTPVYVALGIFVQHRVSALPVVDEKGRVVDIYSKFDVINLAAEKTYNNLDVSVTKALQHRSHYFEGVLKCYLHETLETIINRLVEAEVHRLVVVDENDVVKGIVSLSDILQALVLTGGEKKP

SMILES	pEC50
COc1nc(N2CC3CC2CO3)ccc1-c1cc2c(C(=O)O)c[nH]c2cc1Cl (racemic) [Example 2, rac-5-(6-(2-oxa-5-azabicyclo[2.2.1]heptan-5-yl)-2-methoxypyridin-3-yl)-6-chloro-1H-indole-3-carboxylic acid]	6.60 to 7.00
COc1nc(N2CC3COC(C3)C2)ccc1-c1cc2c(C(=O)O)c[nH]c2cc1Cl (racemic) [Example 20, racemic-5-(6-(6-oxa-3-azabicyclo[3.2.1]octan-3-yl)-2-methoxypyridin-3-yl)-6-chloro-1H-indole-3-carboxylic acid]	7.00 to 7.30
COc1nc(N2CC3CCC(C2)O3)ccc1-c1cc2c(C(=O)O)c[nH]c2cc1Cl (racemic) [Example 29, racemic-5-(6-(8-oxa-3-azabicyclo[3.2.1]octan-3-yl)-2-methoxypyridin-3-yl)-6-chloro-1H-indole-3-carboxylic acid]	6.60 to 7.00
COc1nc(N2CC3CCC2CO3)ccc1-c1cc2c(C(=O)O)c[nH]c2cc1Cl (racemic) [Example 30, racemic-5-(6-(2-oxa-5-azabicyclo[2.2.2]octan-5-yl)-2-methoxypyridin-3-yl)-6-chloro-1H-indole-3-carboxylic acid]	6.60 to 7.00
COc1nc(N2CCC3(CCO3)CC2)ccc1-c1cc2c(C(=O)O)c[nH]c2cc1Cl (racemic) [Example 31, racemic-6-chloro-5-(2-methoxy-6-(1-oxa-7-azaspiro [3.5]nonan-7-yl)pyridin-3-yl)-1H-indole-3-carboxylic acid]	7.00 to 7.30
COc1nc(N2C[C@@H]3COC[C@H]3C2)ccc1-c1cc2c(C(=O)O)c[nH]c2cc1Cl (racemic) [Example 32, racemic-6-chloro-5-(2-methoxy-6-((trans)tetrahydro-1H-furo[3,4-c]pyrrol-5(3H)-yl)pyridin-3-yl)-1H-indole-3-carboxylic acid]	≥ 7.30
COc1nc(N2CCC3(CCOC3)C2)ccc1-c1cc2c(C(=O)O)c[nH]c2cc1Cl (racemic) [Example 37, racemic-6-chloro-5-(2-methoxy-6-(2-oxa-7-azaspiro [4.4]nonan-7-yl)pyridin-3-yl)-1H-indole-3-carboxylic acid]	6.60 to 7.00
COc1nc(N2CC3(CC(NC(=O)OC(C)(C)C)C3)C2)ccc1-c1cc2c(C(=O)O)c[nH]c2cc1Cl [Example 7, 5-(6-(6-((tert-butoxycarbonyl)amino)-2-azaspiro[3.3]heptan-2-yl)-2-methoxypyridin-3-yl)-6-chloro-1H-indole-3-carboxylic acid]	≥ 7.30
COc1nc(N2CC3(CNC3)C2)ccc1-c1cc2c(C(=O)O)c[nH]c2cc1Cl [Example 11, 6-chloro-5-(2-methoxy-6-(2,6-diazaspiro[3.3]heptan-2-yl)pyridin-3-yl)-1H-indole-3-carboxylic acid]	7.00 to 7.30
COc1nc(N2C[C@H]3C[C@H]3C2)ccc1-c1cc2c(C(=O)O)c[nH]c2cc1Cl [Example 14, 5-(6-(3-azabicyclo[3.1.0]hexan-3-yl)-2-methoxypyridin-3-yl)-6-chloro-1H-indole-3-carboxylic acid]	7.00 to 7.30
COc1nc(N2CC3(CCS3(=O)=O)C2)ccc1-c1cc2c(C(=O)O)c[nH]c2cc1Cl [Example 16, 6-chloro-5-(6-(1,1-dioxido-1-thia-6-azaspiro[3.3]heptan-6-yl)-2-methoxypyridin-3-yl)-1H-indole-3-carboxylic acid]	≥ 7.30
COc1nc(N2CCC3(CCOCC3)C2)ccc1-c1cc2c(C(=O)O)c[nH]c2cc1Cl [Example 35, 6-chloro-5-(2-methoxy-6-[8-oxa-2-azaspiro[4.5]decan-2-yl]pyridin-3-yl)-1H-indole-3-carboxylic acid]	6.60 to 7.00
COc1nc(N2CC3(CCOCC3)C2)ccc1-c1cc2c(C(=O)O)c[nH]c2cc1Cl [Example 36, 6-chloro-5-(2-methoxy-6-(7-oxa-2-azaspiro[3.5]nonan-2-yl)pyridin-3-yl)-1H-indole-3-carboxylic acid]	6.60 to 7.00
